Article PMC4767141, “Discovery of Potent, Orally Bioavailable, Small-Molecule Inhibitors of WNT Signaling from a Cell-Based Pathway Screen” (Journal of Medicinal Chemistry, 2015)

Columns and labels:
GRK6 = biological target: T1, GRK6 (Homo sapiens, UniProt P43250); experiment: Millipore kinase panel; type: biochemical; conditions: read-out: % Control
T1 construct: purchased Millipore KinaseProfiler (kinases); Cerep (receptors and ion channels)

FGFR4 = biological target: T2, FGFR4 (Homo sapiens, UniProt P22455); experiment: Millipore kinase panel; type: biochemical; conditions: read-out: % Control
T2 construct: purchased Millipore KinaseProfiler (kinases); Cerep (receptors and ion channels)
T2 sequence (P22455 22-802): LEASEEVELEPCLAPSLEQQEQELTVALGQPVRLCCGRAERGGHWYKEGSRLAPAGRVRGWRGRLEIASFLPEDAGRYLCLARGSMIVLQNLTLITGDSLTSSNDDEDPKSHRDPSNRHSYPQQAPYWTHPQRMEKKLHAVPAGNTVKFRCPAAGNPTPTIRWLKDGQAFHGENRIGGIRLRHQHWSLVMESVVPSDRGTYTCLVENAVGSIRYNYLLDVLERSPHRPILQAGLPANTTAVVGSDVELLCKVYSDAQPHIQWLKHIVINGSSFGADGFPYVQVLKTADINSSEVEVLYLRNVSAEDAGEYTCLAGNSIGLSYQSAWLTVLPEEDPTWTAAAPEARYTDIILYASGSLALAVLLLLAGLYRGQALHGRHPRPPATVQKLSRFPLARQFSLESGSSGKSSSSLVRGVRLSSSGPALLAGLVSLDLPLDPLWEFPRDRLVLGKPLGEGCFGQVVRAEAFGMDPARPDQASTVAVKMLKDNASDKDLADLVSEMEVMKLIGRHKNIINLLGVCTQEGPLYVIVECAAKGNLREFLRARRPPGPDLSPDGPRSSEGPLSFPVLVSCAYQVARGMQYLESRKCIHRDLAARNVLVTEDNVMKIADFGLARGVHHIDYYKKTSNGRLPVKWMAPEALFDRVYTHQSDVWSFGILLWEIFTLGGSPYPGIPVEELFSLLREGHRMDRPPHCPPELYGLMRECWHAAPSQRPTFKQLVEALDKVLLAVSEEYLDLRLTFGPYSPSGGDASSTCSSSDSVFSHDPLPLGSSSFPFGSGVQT

[1] = In vitro reactive metabolite assay; type: in vitro ADME; conditions: data not shown
DCAMKL2 = biological target: T3, DCAMKL2 (Homo sapiens, UniProt Q8N568); experiment: Millipore kinase panel; type: biochemical; conditions: read-out: % Control
T3 construct: purchased Millipore KinaseProfiler (kinases); Cerep (receptors and ion channels)

NK2 (h) = biological target: T4, NK2 (h) (Homo sapiens, UniProt P21452); experiment: CEREP binding panel; conditions: agonist radioligand, read-out: % Inhibition of Control Specific Binding
T4 construct: purchased Millipore KinaseProfiler (kinases); Cerep (receptors and ion channels)

EPHB2 = biological target: T5, EPHB2 (Homo sapiens, UniProt P29323); experiment: Millipore kinase panel; type: biochemical; conditions: read-out: % Control
T5 construct: purchased Millipore KinaseProfiler (kinases); Cerep (receptors and ion channels)

MST3 = biological target: T6, MST3 (Homo sapiens, UniProt Q9Y6E0); experiment: Millipore kinase panel; type: biochemical; conditions: read-out: % Control
T6 construct: purchased Millipore KinaseProfiler (kinases); Cerep (receptors and ion channels)

MEK1 = biological target: T7, MEK1 (Homo sapiens, UniProt Q02750); experiment: Millipore kinase panel; type: biochemical; conditions: read-out: % Control
T7 construct: purchased Millipore KinaseProfiler (kinases); Cerep (receptors and ion channels)

TAO3 = biological target: T8, TAO3 (Homo sapiens, UniProt Q9H2K8); experiment: Millipore kinase panel; type: biochemical; conditions: read-out: % Control
T8 construct: purchased Millipore KinaseProfiler (kinases); Cerep (receptors and ion channels)

AXL = biological target: T9, AXL (Homo sapiens, UniProt P30530); experiment: Millipore kinase panel; type: biochemical; conditions: read-out: % Control
T9 construct: purchased Millipore KinaseProfiler (kinases); Cerep (receptors and ion channels)

[2] = biological target: T10, norepinephrine transporter (h) (Homo sapiens, UniProt P23975); experiment: CEREP binding panel; conditions: antagonist radioligand, read-out: % Inhibition of Control Specific Binding
T10 construct: purchased Millipore KinaseProfiler (kinases); Cerep (receptors and ion channels)
T10 sequence (P23975 whole entry): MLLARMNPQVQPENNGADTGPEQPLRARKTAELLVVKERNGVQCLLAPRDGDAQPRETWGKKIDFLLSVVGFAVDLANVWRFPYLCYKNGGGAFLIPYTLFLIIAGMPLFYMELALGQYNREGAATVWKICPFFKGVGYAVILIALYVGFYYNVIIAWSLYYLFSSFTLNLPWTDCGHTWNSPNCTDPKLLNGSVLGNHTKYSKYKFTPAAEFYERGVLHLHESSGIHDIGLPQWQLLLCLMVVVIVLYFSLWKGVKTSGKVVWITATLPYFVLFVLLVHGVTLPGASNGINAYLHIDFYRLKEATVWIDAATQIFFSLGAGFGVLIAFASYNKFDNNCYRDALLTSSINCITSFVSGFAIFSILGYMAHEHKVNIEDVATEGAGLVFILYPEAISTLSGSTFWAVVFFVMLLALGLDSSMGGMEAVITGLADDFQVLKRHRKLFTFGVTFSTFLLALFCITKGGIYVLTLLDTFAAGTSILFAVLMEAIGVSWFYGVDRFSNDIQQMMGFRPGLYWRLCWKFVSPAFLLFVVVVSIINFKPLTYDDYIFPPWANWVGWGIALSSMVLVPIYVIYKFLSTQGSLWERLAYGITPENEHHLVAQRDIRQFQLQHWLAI

ARG = biological target: T11, ARG (Homo sapiens, UniProt P42684); experiment: Millipore kinase panel; type: biochemical; conditions: ATP at Km, read-out: % Control
T11 construct: purchased Millipore KinaseProfiler (kinases); Cerep (receptors and ion channels)

KV channel = experiment: CEREP binding panel; conditions: 10 μM, antagonist radioligand
SAPK4 = biological target: T12, SAPK4 (Homo sapiens, UniProt O15264); experiment: Millipore kinase panel; type: biochemical; conditions: read-out: % Control
T12 construct: purchased Millipore KinaseProfiler (kinases); Cerep (receptors and ion channels)
T12 sequence (O15264 whole entry): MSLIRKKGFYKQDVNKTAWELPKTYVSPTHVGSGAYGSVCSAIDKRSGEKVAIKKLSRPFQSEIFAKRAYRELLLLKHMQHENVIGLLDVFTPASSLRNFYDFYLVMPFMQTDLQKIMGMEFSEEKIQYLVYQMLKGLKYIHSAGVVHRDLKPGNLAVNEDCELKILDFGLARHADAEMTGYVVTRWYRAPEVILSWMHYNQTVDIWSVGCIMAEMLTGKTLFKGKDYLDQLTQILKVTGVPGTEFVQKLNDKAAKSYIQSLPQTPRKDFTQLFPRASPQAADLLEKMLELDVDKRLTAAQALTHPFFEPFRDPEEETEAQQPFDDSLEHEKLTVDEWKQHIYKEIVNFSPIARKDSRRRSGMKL

EPHA7 = biological target: T13, EPHA7 (Homo sapiens, UniProt Q15375); experiment: Millipore kinase panel; type: biochemical; conditions: read-out: % Control
T13 construct: purchased Millipore KinaseProfiler (kinases); Cerep (receptors and ion channels)
T13 sequence (Q15375 28-998): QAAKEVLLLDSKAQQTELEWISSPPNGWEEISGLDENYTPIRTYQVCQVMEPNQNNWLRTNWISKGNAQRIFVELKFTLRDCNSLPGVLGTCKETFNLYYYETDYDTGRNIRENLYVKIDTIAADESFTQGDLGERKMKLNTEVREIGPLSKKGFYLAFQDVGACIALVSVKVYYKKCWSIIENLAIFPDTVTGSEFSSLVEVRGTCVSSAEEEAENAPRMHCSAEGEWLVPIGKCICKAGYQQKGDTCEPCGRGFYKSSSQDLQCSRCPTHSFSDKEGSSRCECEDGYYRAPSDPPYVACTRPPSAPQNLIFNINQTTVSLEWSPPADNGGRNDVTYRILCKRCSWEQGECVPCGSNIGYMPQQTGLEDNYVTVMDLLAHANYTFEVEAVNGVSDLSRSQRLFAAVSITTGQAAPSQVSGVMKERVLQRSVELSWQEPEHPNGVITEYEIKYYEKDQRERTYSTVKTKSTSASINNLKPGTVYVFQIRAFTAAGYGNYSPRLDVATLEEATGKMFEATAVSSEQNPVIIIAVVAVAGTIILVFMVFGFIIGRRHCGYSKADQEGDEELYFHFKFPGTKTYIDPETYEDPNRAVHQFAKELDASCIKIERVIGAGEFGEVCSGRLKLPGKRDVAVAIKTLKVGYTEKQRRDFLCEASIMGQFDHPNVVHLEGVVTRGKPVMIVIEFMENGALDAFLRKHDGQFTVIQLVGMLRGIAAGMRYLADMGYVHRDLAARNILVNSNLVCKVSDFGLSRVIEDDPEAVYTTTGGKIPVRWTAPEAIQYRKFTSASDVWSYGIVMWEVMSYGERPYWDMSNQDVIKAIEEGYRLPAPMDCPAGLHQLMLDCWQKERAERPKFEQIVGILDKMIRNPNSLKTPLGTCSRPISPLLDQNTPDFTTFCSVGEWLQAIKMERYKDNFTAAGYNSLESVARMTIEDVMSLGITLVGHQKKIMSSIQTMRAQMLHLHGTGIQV

PAK4 = biological target: T14, PAK4 (Homo sapiens, UniProt O96013); experiment: Millipore kinase panel; type: biochemical; conditions: read-out: % Control
T14 construct: purchased Millipore KinaseProfiler (kinases); Cerep (receptors and ion channels)

SRPK2 = biological target: T15, SRPK2 (Homo sapiens, UniProt P78362); experiment: Millipore kinase panel; type: biochemical; conditions: read-out: % Control
T15 construct: purchased Millipore KinaseProfiler (kinases); Cerep (receptors and ion channels)

α1 (non-selective) = experiment: CEREP binding panel; conditions: 10 μM, antagonist radioligand
ACK1 = biological target: T16, ACK1 (Homo sapiens, UniProt Q07912); experiment: Millipore kinase panel; type: biochemical; conditions: read-out: % Control
T16 construct: purchased Millipore KinaseProfiler (kinases); Cerep (receptors and ion channels)

PKG1BETA = biological target: T17, PKG1BETA (Homo sapiens, UniProt Q13976); experiment: Millipore kinase panel; type: biochemical
T17 construct: purchased Millipore

MLK1 = biological target: T18, MLK1 (Homo sapiens, UniProt P80192); experiment: Millipore kinase panel; type: biochemical; conditions: read-out: % Control
T18 construct: purchased Millipore KinaseProfiler (kinases); Cerep (receptors and ion channels)
T18 sequence (P80192 whole entry): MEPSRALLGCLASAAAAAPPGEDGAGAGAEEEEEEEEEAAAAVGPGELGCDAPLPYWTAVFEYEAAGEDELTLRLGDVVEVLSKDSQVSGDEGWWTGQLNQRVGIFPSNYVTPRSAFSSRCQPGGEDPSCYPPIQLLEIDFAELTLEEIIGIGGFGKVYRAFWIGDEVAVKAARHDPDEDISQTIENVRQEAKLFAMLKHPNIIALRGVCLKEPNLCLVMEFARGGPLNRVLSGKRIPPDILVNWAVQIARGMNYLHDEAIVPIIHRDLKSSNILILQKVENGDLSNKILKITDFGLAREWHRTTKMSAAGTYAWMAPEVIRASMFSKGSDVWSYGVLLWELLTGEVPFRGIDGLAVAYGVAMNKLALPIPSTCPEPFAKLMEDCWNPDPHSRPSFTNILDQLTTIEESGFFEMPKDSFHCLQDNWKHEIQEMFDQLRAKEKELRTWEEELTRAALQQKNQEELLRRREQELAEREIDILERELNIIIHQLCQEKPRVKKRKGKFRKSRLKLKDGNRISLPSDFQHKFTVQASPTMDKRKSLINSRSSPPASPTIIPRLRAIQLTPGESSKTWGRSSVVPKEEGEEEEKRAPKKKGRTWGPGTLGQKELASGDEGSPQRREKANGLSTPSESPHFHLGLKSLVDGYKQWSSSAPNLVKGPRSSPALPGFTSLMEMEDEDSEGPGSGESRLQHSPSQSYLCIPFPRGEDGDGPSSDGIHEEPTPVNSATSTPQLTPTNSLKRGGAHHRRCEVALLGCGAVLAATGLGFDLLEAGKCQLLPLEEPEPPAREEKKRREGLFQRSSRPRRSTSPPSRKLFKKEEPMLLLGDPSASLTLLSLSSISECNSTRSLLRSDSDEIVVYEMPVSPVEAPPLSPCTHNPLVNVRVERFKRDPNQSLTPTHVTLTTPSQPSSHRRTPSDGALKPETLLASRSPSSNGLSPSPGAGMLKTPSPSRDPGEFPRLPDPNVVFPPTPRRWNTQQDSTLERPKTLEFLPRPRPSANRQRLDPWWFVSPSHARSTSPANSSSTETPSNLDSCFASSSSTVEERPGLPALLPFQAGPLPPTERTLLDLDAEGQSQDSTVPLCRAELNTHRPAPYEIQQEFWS

MELK = biological target: T19, MELK (Homo sapiens, UniProt Q14680); experiment: Millipore kinase panel; type: biochemical; conditions: read-out: % Control
T19 construct: purchased Millipore KinaseProfiler (kinases); Cerep (receptors and ion channels)
T19 sequence (Q14680 whole entry): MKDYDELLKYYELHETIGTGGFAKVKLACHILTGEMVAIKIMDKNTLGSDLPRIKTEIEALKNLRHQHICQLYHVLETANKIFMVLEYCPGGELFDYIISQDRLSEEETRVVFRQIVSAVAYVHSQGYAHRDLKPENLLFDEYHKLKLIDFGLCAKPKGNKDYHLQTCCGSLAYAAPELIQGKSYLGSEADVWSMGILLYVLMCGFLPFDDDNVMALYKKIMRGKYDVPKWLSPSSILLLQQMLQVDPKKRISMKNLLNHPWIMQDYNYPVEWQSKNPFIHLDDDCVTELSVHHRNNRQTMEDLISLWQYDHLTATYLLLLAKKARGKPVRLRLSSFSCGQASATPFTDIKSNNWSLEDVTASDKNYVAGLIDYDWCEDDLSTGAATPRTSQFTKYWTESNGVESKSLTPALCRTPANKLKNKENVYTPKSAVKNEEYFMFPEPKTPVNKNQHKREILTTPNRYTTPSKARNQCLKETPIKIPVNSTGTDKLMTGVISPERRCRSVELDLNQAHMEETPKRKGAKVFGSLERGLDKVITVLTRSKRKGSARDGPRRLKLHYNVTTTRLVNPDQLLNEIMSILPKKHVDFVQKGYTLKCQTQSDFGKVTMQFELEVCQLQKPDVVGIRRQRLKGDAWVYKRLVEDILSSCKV

PAK3 = biological target: T20, PAK3 (Homo sapiens, UniProt O75914); experiment: Millipore kinase panel; type: biochemical; conditions: read-out: % Control
T20 construct: purchased Millipore KinaseProfiler (kinases); Cerep (receptors and ion channels)

Clint determination = type: in vitro ADME; conditions: rat, microsomes, pH 7.4, rat microsomes, read-out: Clint (μL/min/mg) Rat
CYP450 1A2 = CYP450 1A2 (Homo sapiens, UniProt P05177); experiment: CYP450 inhibition
SAPK2A(T106M) = biological target: T21, SAPK2A(T106M) (Homo sapiens, UniProt Q16539, T106M); experiment: Millipore kinase panel; type: biochemical; conditions: read-out: % Control
T21 construct: purchased Millipore KinaseProfiler (kinases); Cerep (receptors and ion channels)

PKCIOTA = biological target: T22, PKCIOTA (Homo sapiens, UniProt P41743); experiment: Millipore kinase panel; type: biochemical; conditions: read-out: % Control
T22 construct: purchased Millipore KinaseProfiler (kinases); Cerep (receptors and ion channels)

PI3K DELTA = biological target: T23, PI3K DELTA (Homo sapiens, UniProt O00329); experiment: Millipore kinase panel; type: biochemical; conditions: read-out: % Control
T23 construct: purchased Millipore KinaseProfiler (kinases); Cerep (receptors and ion channels)

PKCDELTA = biological target: T24, PKCDELTA (Homo sapiens, UniProt Q05655); experiment: Millipore kinase panel; type: biochemical; conditions: read-out: % Control
T24 construct: purchased Millipore KinaseProfiler (kinases); Cerep (receptors and ion channels)

PKCETA = biological target: T25, PKCETA (Homo sapiens, UniProt P24723); experiment: Millipore kinase panel; type: biochemical; conditions: read-out: % Control
T25 construct: purchased Millipore KinaseProfiler (kinases); Cerep (receptors and ion channels)

PKCGAMMA = biological target: T26, PKCGAMMA (Homo sapiens, UniProt P05129); experiment: Millipore kinase panel; type: biochemical; conditions: read-out: % Control
T26 construct: purchased Millipore KinaseProfiler (kinases); Cerep (receptors and ion channels)

CK2ALPHA2 = biological target: T27, CK2ALPHA2 (Homo sapiens, UniProt P19784); experiment: Millipore kinase panel; type: biochemical; conditions: read-out: % Control
T27 construct: purchased Millipore KinaseProfiler (kinases); Cerep (receptors and ion channels)

CAMKIIDELTA = biological target: T28, CAMKIIDELTA (Homo sapiens, UniProt Q13557); experiment: Millipore kinase panel; type: biochemical; conditions: read-out: % Control
T28 construct: purchased Millipore KinaseProfiler (kinases); Cerep (receptors and ion channels)

PI3 KINASE (P110B/P85B) = biological target: T29, PI3 KINASE (P110B/P85B) (Mus musculus, UniProt Q8BTI9); experiment: Millipore kinase panel; type: biochemical; conditions: read-out: % Control
T29 construct: purchased Millipore KinaseProfiler (kinases); Cerep (receptors and ion channels)

FLT3(D835Y) = biological target: T30, FLT3(D835Y) (Homo sapiens, UniProt P36888, D835Y); experiment: Millipore kinase panel; type: biochemical; conditions: read-out: % Control
T30 construct: purchased Millipore KinaseProfiler (kinases); Cerep (receptors and ion channels)

PI3K BETA = biological target: T31, PI3K BETA (Homo sapiens, UniProt P42338); experiment: Millipore kinase panel; type: biochemical; conditions: read-out: % Control
T31 construct: purchased Millipore KinaseProfiler (kinases); Cerep (receptors and ion channels)

CYP450 2B8 = CYP450 2B8 (Homo sapiens, UniProt P20813); experiment: CYP450 inhibition
ABL(T315I) = biological target: T32, ABL(T315I) (Homo sapiens, UniProt P00519, T315I); experiment: Millipore kinase panel; type: biochemical; conditions: read-out: % Control
T32 construct: purchased Millipore KinaseProfiler (kinases); Cerep (receptors and ion channels)

PKCBII = biological target: T33, PKCBII (Homo sapiens, UniProt P05771); experiment: Millipore kinase panel; type: biochemical; conditions: read-out: % Control
T33 construct: purchased Millipore KinaseProfiler (kinases); Cerep (receptors and ion channels)

CYP450 2D6 = CYP450 2D6 (Homo sapiens, UniProt P10635); experiment: CYP450 inhibition; type: in vitro ADME
EPHA4 = biological target: T34, EPHA4 (Homo sapiens, UniProt P54764); experiment: Millipore kinase panel; type: biochemical; conditions: read-out: % Control
T34 construct: purchased Millipore KinaseProfiler (kinases); Cerep (receptors and ion channels)

SRC(1-530) = biological target: T35, SRC(1-530) (Homo sapiens, UniProt P12931); experiment: Millipore kinase panel; type: biochemical; conditions: read-out: % Control
T35 construct: purchased Millipore KinaseProfiler (kinases); Cerep (receptors and ion channels)

T1 sequence (P43250 whole entry): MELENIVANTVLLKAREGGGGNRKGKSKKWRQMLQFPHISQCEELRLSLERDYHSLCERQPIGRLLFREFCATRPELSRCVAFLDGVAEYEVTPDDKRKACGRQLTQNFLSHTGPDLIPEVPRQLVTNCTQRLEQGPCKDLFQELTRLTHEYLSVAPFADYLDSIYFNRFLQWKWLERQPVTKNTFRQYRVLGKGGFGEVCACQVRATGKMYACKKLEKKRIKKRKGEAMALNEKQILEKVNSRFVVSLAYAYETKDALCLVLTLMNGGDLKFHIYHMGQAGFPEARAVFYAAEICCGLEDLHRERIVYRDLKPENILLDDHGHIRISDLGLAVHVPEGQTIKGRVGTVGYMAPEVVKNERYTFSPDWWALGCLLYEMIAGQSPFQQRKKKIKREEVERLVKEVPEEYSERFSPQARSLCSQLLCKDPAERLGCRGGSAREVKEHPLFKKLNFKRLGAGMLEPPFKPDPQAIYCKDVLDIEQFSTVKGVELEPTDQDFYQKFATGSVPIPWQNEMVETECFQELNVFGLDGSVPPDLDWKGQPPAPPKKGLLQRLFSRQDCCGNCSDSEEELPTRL

| SMILES | remaining activity at 1 µM (GRK6) [%] | remaining activity at 1 µM (FGFR4) [%] | remaining activity at 1 µM (DCAMKL2) [%] | inhibition at 10 µM (NK2 (h)) [%] | remaining activity at 1 µM (EPHB2) [%] | remaining activity at 1 µM (MST3) [%] | remaining activity at 1 µM (MEK1) [%] | remaining activity at 1 µM (TAO3) [%] | remaining activity at 1 µM (AXL) [%] | inhibition at 10 µM [2] [%] | % Inhibition of Control Specific Binding (KV channel) [%] | remaining activity at 1 µM (SAPK4) [%] | remaining activity at 1 µM (EPHA7) [%] | remaining activity at 1 µM (PAK4) [%] | remaining activity at 1 µM (SRPK2) [%] | % Inhibition of Control Specific Binding (α1 (non-selective)) [%] | remaining activity at 1 µM (MLK1) [%] | remaining activity at 1 µM (MELK) [%] | further results |
| --- | --- | --- | --- | --- | --- | --- | --- | --- | --- | --- | --- | --- | --- | --- | --- | --- | --- | --- | --- |
| O=C1NCCC12CCN(c1c(Cl)cncc1-c1ccc(N3CCOCC3)cc1)CC2 [Compound 44, 8-(3-Chloro-5-(4-morpholin-4-ylphenyl)pyridin-4-yl)-2,8-diazaspiro[4.5]decan-1-one] | -1 | 7 | 0 | 11 | -1 | 34 | -3 | -22 | -12 | -15 | 2 | -2 | -2 | -2 | 10 | -4 | 1 | -19 | glutathione adduct in an in vitro reactive metabolite assay [1]: generated a glutathione adduct; remaining activity at 1 µM (ARG): -12%; remaining activity at 1 µM (ACK1): 0%; remaining activity at 1 µM (PKG1BETA; read-out: % Control): -4%; remaining activity at 1 µM (PAK3): 17%; microsomal CLint at 1 μM (Clint determination): 41 µL/min/mg |
| Cn1cc(-c2ccc(-c3cncc(Cl)c3N3CCC4(CCNC4=O)CC3)cc2)cn1 [Compound 74, 8-(3-Chloro-5-(4-(1-methyl-1H-pyrazol-4-yl)phenyl)pyridin-4-yl)-2,8-diazaspiro[4.5]decan-1-one] | -1 | 0 | 1 | -17 | 7 | -7 | 10 | -24 | -18 | 14 | -13 | -4 | 6 | 9 | -10 | 8 | -5 | 32 | IC50 (CYP450 1A2): > 20 µM; remaining activity at 1 µM (SAPK2A(T106M)): -8%; remaining activity at 1 µM (PKCIOTA): -25%; remaining activity at 1 µM (PI3K DELTA): -2%; remaining activity at 1 µM (PKCDELTA): -37%; remaining activity at 1 µM (PKCETA): -13%; remaining activity at 1 µM (PKCGAMMA): 2%; remaining activity at 1 µM (CK2ALPHA2): -1%; remaining activity at 1 µM (CAMKIIDELTA): 4%; remaining activity at 1 µM (PI3 KINASE (P110B/P85B)): -1%; IC50 (PKG1BETA; ATP at Km): > 10 µM; remaining activity at 1 µM (FLT3(D835Y)): -11%; remaining activity at 1 µM (PI3K BETA): 0%; IC50 (CYP450 2B8): > 20 µM; remaining activity at 1 µM (ABL(T315I)): 7%; remaining activity at 1 µM (PKCBII): -3%; IC50 (CYP450 2D6): > 20 µM; remaining activity at 1 µM (EPHA4): -26%; remaining activity at 1 µM (SRC(1-530)): -8% |
